This note sets out measurements from patent US20140023611A1 (priority 2010, published 2014).

pIC50: −log10 of the molar value. A value given as a limit tells only on which side of the number the result lay.

One assay has as its target T1, human NaP2b (SLC34A2) (Homo sapiens, UniProt O95436).
T1 construct: host or cells: HEK293
T1 sequence (O95436 1-690): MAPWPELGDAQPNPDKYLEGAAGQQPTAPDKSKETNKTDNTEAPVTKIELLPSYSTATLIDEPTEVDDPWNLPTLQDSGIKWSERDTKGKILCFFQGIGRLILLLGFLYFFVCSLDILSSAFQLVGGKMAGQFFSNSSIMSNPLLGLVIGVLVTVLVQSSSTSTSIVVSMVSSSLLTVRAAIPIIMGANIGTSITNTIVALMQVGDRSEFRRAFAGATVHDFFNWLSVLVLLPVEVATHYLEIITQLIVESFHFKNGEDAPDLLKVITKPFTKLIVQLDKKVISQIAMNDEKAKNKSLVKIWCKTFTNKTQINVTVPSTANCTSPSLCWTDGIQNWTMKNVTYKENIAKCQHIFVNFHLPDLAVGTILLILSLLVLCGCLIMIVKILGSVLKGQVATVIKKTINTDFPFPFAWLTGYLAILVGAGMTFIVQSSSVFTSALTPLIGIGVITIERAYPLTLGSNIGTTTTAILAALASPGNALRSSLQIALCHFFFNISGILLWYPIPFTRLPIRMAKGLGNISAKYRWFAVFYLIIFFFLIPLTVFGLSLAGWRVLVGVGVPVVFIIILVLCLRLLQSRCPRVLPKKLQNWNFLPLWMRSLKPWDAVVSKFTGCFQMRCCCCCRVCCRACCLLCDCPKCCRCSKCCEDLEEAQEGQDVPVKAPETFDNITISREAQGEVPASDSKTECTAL
Kind of assay: Inhibition of NaP2b-mediated Pi (33P) uptake in transfected HEK293 cells, human NaP2b. It is filed as cell-based. The following applies: read-out: pIC50 range for human NaP2b (converted). Here is the method: HEK293 cells were obtained from the American Type Culture collection and propagated per their instructions. Expression clones for rat and human NaP2b (SLC34A2) were obtained from Open Biosystems (Catalog numbers MRN1768-9510282, and MHS1010-99823026, respectively). The sequence of the human protein was mutated to insert a threonine after residue 37, and to introduce a N39D mutation.
The rate of phosphate (Pi) uptake into HEK293 cells was measured using a modification of the method described by Mohrmann et al. (Mohrmann, I., Mohrmann, M., Biber, J., and Murer, H. (1986) Am. J. Phys. 250(3 Pt 1):G323-30.) Transfected HEK293 cells were treated with a pharmacological agent to minimize endogenous PiT-mediated phosphate transport activity, such that the only remaining sodium-dependent phosphate transport activity is that which was bestowed by introduction of the NaP2b genes.
Cells were seeded into 96-well plates at 25,000 cells/well and cultured overnight. Lipofectamine 2000 (Invitrogen) was used to introduce the NaP2b cDNA, and the cells were allowed to approach confluence during a second overnight incubation. […] Cells were then overlayed with either choline uptake buffer or sodium uptake buffer (14 mM Tris, 137 mM sodium chloride, 5.4 mM KCl, 2.8 mM CaCl2, 1.2 mM MgSO4, 100 uM KH2PO4, PiT-silencing agent, 1 mg/mL Bovine Serum Albumin, pH 7.4) containing 6-9 uCi/mL ^33P orthophosphoric acid (Perkin Elmer) and test compound. Each compound was tested at twelve concentrations ranging from 0.1 nM to 30 uM. Assays were run in duplicate.
After incubation for 3-30 minutes at room temperature, assay mixtures were removed, and the cells were washed twice with ice cold stop solution (137 mM sodium chloride, 14 mM Tris, pH 7.4). Cells were lysed by addition of 20 μL 0.1% Tween 80 followed by 100 μL scintillation fluid, and counted using a TopCount (Perkin Elmer).
pIC50 (the negative log of the IC50) values of the test compounds were calculated using GraphPad Prism.

A further assay addresses T2, rat NaP2b (SLC34A2) (Rattus norvegicus, UniProt Q9JJ09).
T2 construct: host or cells: HEK293
T2 sequence (Q9JJ09 1-695): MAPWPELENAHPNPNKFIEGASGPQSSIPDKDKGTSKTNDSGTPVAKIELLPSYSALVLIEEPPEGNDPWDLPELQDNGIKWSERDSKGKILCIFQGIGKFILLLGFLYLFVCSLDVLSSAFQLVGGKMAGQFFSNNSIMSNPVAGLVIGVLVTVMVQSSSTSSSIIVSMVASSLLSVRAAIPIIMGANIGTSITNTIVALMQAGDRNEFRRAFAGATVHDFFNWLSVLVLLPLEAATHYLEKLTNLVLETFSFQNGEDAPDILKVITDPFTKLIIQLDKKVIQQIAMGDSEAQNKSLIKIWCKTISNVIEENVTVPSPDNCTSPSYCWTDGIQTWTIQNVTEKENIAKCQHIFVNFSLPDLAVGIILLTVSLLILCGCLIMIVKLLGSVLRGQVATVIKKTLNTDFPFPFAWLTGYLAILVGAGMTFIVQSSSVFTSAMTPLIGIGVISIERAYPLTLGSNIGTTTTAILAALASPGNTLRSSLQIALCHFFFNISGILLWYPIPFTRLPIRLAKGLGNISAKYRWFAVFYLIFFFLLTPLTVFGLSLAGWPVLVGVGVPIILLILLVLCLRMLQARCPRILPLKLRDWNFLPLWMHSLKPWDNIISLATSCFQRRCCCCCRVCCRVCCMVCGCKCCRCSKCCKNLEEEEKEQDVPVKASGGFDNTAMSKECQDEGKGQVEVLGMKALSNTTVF
Kind of assay: Inhibition of NaP2b-mediated Pi (33P) uptake in transfected HEK293 cells, rat NaP2b. The assay is classed as cell-based. The following applies: 33P Pi uptake, 0.1 mM phosphate, value given as pIC50 range. An outline of the steps: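 The cells transiently expressed NaP2b after Lipofectamine transfection. Each compound was run in duplicate over twelve concentrations, 0.1 nM–30 uM.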

A word on the pIC50: it is the IC50 on a negative log10 scale, so that one unit is a factor of ten. A lower pIC50 goes with a large IC50. For `CCN(CC)c1ccc(NC(=O)c2cccc(C(=O)N(C)CCN(C)CCOCCOCCOCCNC(=O)NCCN3CCOCC3)c2)c(-c2cc(C(=O)N[C@H]3CCCc4ccccc43)ccn2)c1` [Example 223, (S)—N1-(4-(diethylamino)-2-(4-(1,2,3,4-tetrahydronaphthalen-1-ylcarbamoyl)pyridin-2-yl)phenyl)-N3-methyl-N3-(17-methyl-1-morpholino-4-oxo-8,11,14-trioxa-3,5,17-triazanonadecan-19-yl)isophthalamide], the IC50 at human NaP2b (SLC34A2) was more than 31.6 µM. The pIC50 at rat NaP2b (SLC34A2) was 4.50 to 5.00.
In the same order, the values of `CCN(CC)c1ccc(NC(=O)c2cccc(C(=O)N(C)CCN(C)CCOCCOCCOCCNS(C)(=O)=O)c2)c(-c2cc(C(=O)N[C@H]3CCCc4ccccc43)ccn2)c1` [Example 226, 3-N-[4-(diethylamino)-2-(4-{[(1S)-1,2,3,4-tetrahydronaphthalen-1-yl]carbamoyl}pyridin-2-yl)phenyl]-1-N-(1-methanesulfonamido-12-methyl-3,6,9-trioxa-12-azatetradecan-14-yl)-1-N-methylbenzene-1,3-dicarboxamide] are 1 to 7.94 µM and more than 6.00.
On the same counts, the results for `CCN(CC)c1ccc(NC(=O)c2cccc(C(=O)N(C)CCN3CCN(C(=O)COCCOCCOCCOCCOCCOCCOCCOC)CC3)c2)c(-c2cc(C(=O)N[C@H]3CCCc4ccccc43)ccn2)c1` [Example 227, (S)—N1-(2-(4-2,5,8,11,14,17,20,23-octaoxapentacosanepiperazin-1-yl)ethyl)-N3-(4-(diethylamino)-2-(4-(1,2,3,4-tetrahydronaphthalen-1-ylcarbamoyl)pyridin-2-yl)phenyl)-N1-methylisophthalamide] are 1 to 7.94 µM and 5.10 to 6.00.
On the same counts, the results for `CN(CCN1CCN(C(=O)N(C)CCOCCOCCOCCC(=O)OC(C)(C)C)CC1)C(=O)c1cccc(C(=O)Nc2ccc(N3CCCCC3)cc2-c2cc(C(=O)N[C@H]3CCCc4ccccc43)ccn2)c1` [Example 229, tert-butyl 3-[2-(2-{2-[methyl(4-{2-[N-methyl-1-(3-{[4-(piperidin-1-yl)-2-(4-{[(1S)-1,2,3,4-tetrahydronaphthalen-1-yl]carbamoyl}pyridin-2-yl)phenyl]carbamoyl}phenyl)formamido]ethyl}piperazin-1-yl)carbonylamino]ethoxy}ethoxy)ethoxy]propanoate] are less than 1 µM and more than 6.00.
As for `CCN(CC)c1ccc(NC(=O)c2cccc(C(=O)N(C)CCN3CCN(C(=O)OCCOCCOCCOCCOCCOCCOCCOC)CC3)c2)c(-c2cc(C(=O)N[C@H]3CCCc4ccccc43)ccn2)c1` [Example 230, (S)-2,5,8,11,14,17,20-heptaoxadocosan-22-yl 4-(2-(3-(4-(diethylamino)-2-(4-(1,2,3,4-tetrahydronaphthalen-1-ylcarbamoyl)pyridin-2-yl)phenylcarbamoyl)-N-methylbenzamido)ethyl)piperazine-1-carboxylate], the IC50 at human NaP2b (SLC34A2) was 1 to 7.94 µM. Besides, the pIC50 on rat NaP2b (SLC34A2) was 5.10 to 6.00.
On the same counts, the results for `CCN(CC)c1ccc(NC(=O)c2cccc(C(=O)N(C)CCN3CCN(C(=O)N(C)CCOCCOCCOCCC(=O)N4CCN(CCOCCO)CC4)CC3)c2)c(-c2cc(C(=O)N[C@H]3CCCc4ccccc43)ccn2)c1` [Example 231, 3-N-[4-(diethylamino)-2-(4-{[(1S)-1,2,3,4-tetrahydronaphthalen-1-yl]carbamoyl}pyridin-2-yl)phenyl]-1-N-(2-{4-[(2-{2-[2-(3-{4-[2-(2-hydroxyethoxy)ethyl]piperazin-1-yl}-3-oxopropoxy)ethoxy]ethoxy}ethyl)(methyl)carbamoyl]piperazin-1-yl}ethyl)-1-N-methylbenzene-1,3-dicarboxamide] are 10 to 31.6 µM and 4.50 to 5.00.
Take `CN(CCOCCOCCOCCC(=O)N1CCN(CCOCCO)CC1)C(=O)Cc1cccc(SCc2cccc(C(=O)Nc3ccc(N4CCCCC4)cc3-c3cc(C(=O)N[C@H]4CCCc5ccccc54)ccn3)c2)c1` [Example 236, (S)-2-(2-(3-((3-(15-(4-(2-(2-hydroxyethoxy)ethyl)piperazin-1-yl)-3-methyl-21-2.15-dioxo-6,9,12-trioxa-3-azapentadecyl)phenylthio)methyl)benzamido)-5-(piperidin-1-yl)phenyl)-N-(1,2,3,4-tetrahydronaphthalen-1-yl)isonicotinamide]: on human NaP2b (SLC34A2), the IC50 was less than 1 µM. The pIC50 against rat NaP2b (SLC34A2) is more than 6.00.
On the same counts, the results for `CN(CCN1CCOC[C@H]1C(=O)N(C)CCOCCOCCOCCC(=O)OC(C)(C)C)C(=O)c1cccc(C(=O)Nc2ccc(N3CCCCC3)cc2-c2cc(C(=O)N[C@H]3CCCc4ccccc43)ccn2)c1` [Example 242, tert-butyl 2-methyl-1-((S)-4-(2-(N-methyl-3-(4-(piperidin-1-yl)-2-(4-((S)-1,2,3,4-tetrahydronaphthalen-1-ylcarbamoyl)pyridin-2-yl)phenylcarbamoyl)benzamido)ethyl)morpholin-3-yl)-1-oxo-5,8,11-trioxa-2-azatetradecan-14-oate] are less than 1 µM and more than 6.00.
On the same counts, the results for `CN(CCN1CCOC[C@H]1C(=O)N(C)CCOCCOCCOCCC(=O)O)C(=O)c1cccc(C(=O)Nc2ccc(N3CCCCC3)cc2-c2cc(C(=O)N[C@H]3CCCc4ccccc43)ccn2)c1` [Example 243, 2-methyl-1-((S)-4-(2-(N-methyl-3-(4-(piperidin-1-yl)-2-(4-((S)-1,2,3,4-tetrahydronaphthalen-1-ylcarbamoyl)pyridin-2-yl)phenylcarbamoyl)benzamido)ethyl)morpholin-3-yl)-1-oxo-5,8,11-trioxa-2-azatetradecan-14-oic acid] are 10 to 31.6 µM and 4.50 to 5.00.
In the same order, the values of `CN(CCN1CCC(C(=O)OC(C)(C)C)CC1)C(=O)c1cccc(C(=O)Nc2ccc(N3CCCCC3)cc2-c2cc(C(=O)N[C@H]3CCCc4ccccc43)ccn2)c1` [Example 244, (S)-tert-butyl 1-(2-(N-methyl-3-(4-(piperidin-1-yl)-2-(4-(1,2,3,4-tetrahydronaphthalen-1-ylcarbamoyl)pyridin-2-yl)phenylcarbamoyl)benzamido)ethyl)piperidine-4-carboxylate] are 1 to 7.94 µM and 5.10 to 6.00.
